Results: patent US12077503B2, “Substituted cyclic amides and their use as herbicides” (FMC CORPORATION, priority 2015, dated 2024)

Columns and labels:
Test in all cases: Test C preemergence
Format in all cases: in vivo
[1] = tested on: Galium (catchweed bedstraw, Galium aparine); settings: for Plant response rating, Galium: scale 0 to 100, 0 no effect, 100 complete control
Outline: (§1)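 Visual rating, 0–100 scale (0 = no effect, 100 = complete control) versus controls, 13–15 d after treatment. Compounds in non-phytotoxic solvent plus surfactant; applied preemergence to seeds in loam/sand soil or postemergence to 1- to 4-leaf plants (2–18 cm) in peat/vermiculite medium; greenhouse-held.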

[2] = tested on: barnyardgrass (Echinochloa crus-galli); settings: for Plant response rating, Barnyardgrass: scale 0 to 100, 0 no effect, 100 complete control
Outline: as §1

[3] = tested on: blackgrass (Alopecurus myosuroides); settings: for Plant response rating, Blackgrass: scale 0 to 100, 0 no effect, 100 complete control
Outline: as §1

corn (Zea mays) = settings: for Plant response rating, Corn: scale 0 to 100, 0 no effect, 100 complete control
Outline: as §1

[4] = tested on: crabgrass, large (large crabgrass, Digitaria sanguinalis); settings: for Plant response rating, Crabgrass, Large: scale 0 to 100, 0 no effect, 100 complete control
Outline: as §1

[5] = tested on: foxtail, giant (giant foxtail, Setaria faberii); settings: for Plant response rating, Foxtail, Giant: scale 0 to 100, 0 no effect, 100 complete control
Outline: as §1

[6] = tested on: johnsongrass (Sorghum halepense); settings: for Plant response rating, Johnsongrass: scale 0 to 100, 0 no effect, 100 complete control
Outline: as §1

[7] = tested on: lambsquarters (Chenopodium album); settings: for Plant response rating, Lambsquarters: scale 0 to 100, 0 no effect, 100 complete control
Outline: as §1

[8] = tested on: morningglory (Ipomoea coccinea); settings: for Plant response rating, Morningglory: scale 0 to 100, 0 no effect, 100 complete control
Outline: as §1

[9] = tested on: nutsedge, yellow (yellow nutsedge, Cyperus esculentus); settings: for Plant response rating, Nutsedge, Yellow: scale 0 to 100, 0 no effect, 100 complete control
Outline: as §1

[10] = tested on: oilseed rape (Brassica napus); settings: for Plant response rating, Oilseed Rape: scale 0 to 100, 0 no effect, 100 complete control
Outline: as §1

[11] = tested on: ragweed (common ragweed, Ambrosia elatior); settings: for Plant response rating, Ragweed: scale 0 to 100, 0 no effect, 100 complete control
Outline: as §1

[12] = tested on: ryegrass, Italian (Italian ryegrass, Lolium multiflorum); settings: for Plant response rating, Ryegrass, Italian: scale 0 to 100, 0 no effect, 100 complete control
Outline: as §1

soybean (Glycine max) = settings: for Plant response rating, Soybean: scale 0 to 100, 0 no effect, 100 complete control
Outline: as §1

[13] = tested on: velvetleaf (Abutilon theophrasti); settings: for Plant response rating, Velvetleaf: scale 0 to 100, 0 no effect, 100 complete control
Outline: as §1

[14] = tested on: waterhemp (common waterhemp, Amaranthus rudis); settings: for Plant response rating, Waterhemp: scale 0 to 100, 0 no effect, 100 complete control
Outline: as §1

[15] = tested on: wheat (winter wheat, Triticum aestivum); settings: for Plant response rating, Wheat: scale 0 to 100, 0 no effect, 100 complete control
Outline: as §1

[16] = 31 g ai/ha, 0 is no effect, 100 is complete control

Cc1ccc(C2CN(C)C(=O)C2C(=O)Nc2cccc(F)c2F)cc1 (centres unmarked) [Compound 662]
Plant response rating (scale of 0 to 100), Galium [1, 16]: 90
Plant response rating, Galium ([1]; 62 g ai/ha): 100
Plant response rating, Galium ([1]; 125 g ai/ha): 100
Plant response rating, Galium ([1]; 250 g ai/ha): 90
Plant response rating (scale of 0 to 100), Barnyardgrass [2, 16]: 95
Plant response rating, Barnyardgrass ([2]; 62 g ai/ha): 98
Plant response rating, Barnyardgrass ([2]; 125 g ai/ha): 98
Plant response rating, Barnyardgrass ([2]; 250 g ai/ha): 100
Plant response rating (scale of 0 to 100), Blackgrass [3, 16]: 70
Plant response rating, Blackgrass ([3]; 62 g ai/ha): 75
Plant response rating, Blackgrass ([3]; 125 g ai/ha): 95
Plant response rating, Blackgrass ([3]; 250 g ai/ha): 98
Plant response rating (scale of 0 to 100), Corn (corn (Zea mays); [16]): 55
Plant response rating, Corn (corn (Zea mays); 62 g ai/ha): 70
Plant response rating, Corn (corn (Zea mays); 125 g ai/ha): 80
Plant response rating, Corn (corn (Zea mays); 250 g ai/ha): 85
Plant response rating (scale of 0 to 100), Crabgrass, Large [4, 16]: 98
Plant response rating, Crabgrass, Large ([4]; 62 g ai/ha): 98
Plant response rating, Crabgrass, Large ([4]; 125 g ai/ha): 100
Plant response rating, Crabgrass, Large ([4]; 250 g ai/ha): 100
Plant response rating (scale of 0 to 100), Foxtail, Giant [5, 16]: 95
Plant response rating, Foxtail, Giant ([5]; 62 g ai/ha): 95
Plant response rating, Foxtail, Giant ([5]; 125 g ai/ha): 95
Plant response rating, Foxtail, Giant ([5]; 250 g ai/ha): 98
Plant response rating (scale of 0 to 100), Johnsongrass [6, 16]: 60
Plant response rating, Johnsongrass ([6]; 62 g ai/ha): 70
Plant response rating, Johnsongrass ([6]; 125 g ai/ha): 90
Plant response rating, Johnsongrass ([6]; 250 g ai/ha): 90
Plant response rating (scale of 0 to 100), Lambsquarters [7, 16]: 100
Plant response rating, Lambsquarters ([7]; 62 g ai/ha): 85
Plant response rating, Lambsquarters ([7]; 125 g ai/ha): 100
Plant response rating, Lambsquarters ([7]; 250 g ai/ha): 100
Plant response rating (scale of 0 to 100), Morningglory [8, 16]: 0
Plant response rating, Morningglory ([8]; 62 g ai/ha): 0
Plant response rating, Morningglory ([8]; 125 g ai/ha): 30
Plant response rating, Morningglory ([8]; 250 g ai/ha): 25
Plant response rating (scale of 0 to 100), Nutsedge, Yellow [9, 16]: 0
Plant response rating, Nutsedge, Yellow ([9]; 62 g ai/ha): 0
Plant response rating, Nutsedge, Yellow ([9]; 125 g ai/ha): 0
Plant response rating, Nutsedge, Yellow ([9]; 250 g ai/ha): 0
Plant response rating (scale of 0 to 100), Oilseed Rape [10, 16]: 70
Plant response rating, Oilseed Rape ([10]; 62 g ai/ha): 85
Plant response rating, Oilseed Rape ([10]; 125 g ai/ha): 90
Plant response rating, Oilseed Rape ([10]; 250 g ai/ha): 90
Plant response rating (scale of 0 to 100), Ragweed [11, 16]: 70
Plant response rating, Ragweed ([11]; 62 g ai/ha): 75
Plant response rating, Ragweed ([11]; 125 g ai/ha): 80
Plant response rating, Ragweed ([11]; 250 g ai/ha): 85
Plant response rating (scale of 0 to 100), Ryegrass, Italian [12, 16]: 50
Plant response rating, Ryegrass, Italian ([12]; 62 g ai/ha): 70
Plant response rating, Ryegrass, Italian ([12]; 125 g ai/ha): 80
Plant response rating, Ryegrass, Italian ([12]; 250 g ai/ha): 95
Plant response rating (scale of 0 to 100), Soybean (soybean (Glycine max); [16]): 0
Plant response rating, Soybean (soybean (Glycine max); 62 g ai/ha): 0
Plant response rating, Soybean (soybean (Glycine max); 125 g ai/ha): 0
Plant response rating, Soybean (soybean (Glycine max); 250 g ai/ha): 0
Plant response rating (scale of 0 to 100), Velvetleaf [13, 16]: 35
Plant response rating, Velvetleaf ([13]; 62 g ai/ha): 50
Plant response rating, Velvetleaf ([13]; 125 g ai/ha): 70
Plant response rating, Velvetleaf ([13]; 250 g ai/ha): 75
Plant response rating (scale of 0 to 100), Waterhemp [14, 16]: 60
Plant response rating, Waterhemp ([14]; 62 g ai/ha): 80
Plant response rating, Waterhemp ([14]; 125 g ai/ha): 85
Plant response rating, Waterhemp ([14]; 250 g ai/ha): 90
Plant response rating (scale of 0 to 100), Wheat [15, 16]: 35
Plant response rating, Wheat ([15]; 62 g ai/ha): 70
Plant response rating, Wheat ([15]; 125 g ai/ha): 90
Plant response rating, Wheat ([15]; 250 g ai/ha): 90
